Measured values: US8093226B2, “Cytostatic 7-deazapurine nucleosides” (Institute of Organic Chemistry and Biochemistry of the …, priority 2008, dated 2012)

Key:
Type in all cases: cell-based
Du145 = assay: Test A: Cytostatic Cell Culture Assay (GI50), Du145; settings: Homo sapiens, DU-145, 120 h; Du145 cells, 5 days, SRB; read-out: G150 Prostate Du145
Excerpt: (§1) Test A: Cytostatic Cell Culture Assay (GI50)
(§2) This assay is based on quantification of cell counts by a calorimetric detection of the cell associated proteins. The assay relies on the ability of sulforhodamine B (SRB) to bind to protein components of cells that have been fixed to tissue-culture plates by trichloroacetic acid (TCA). SRB is a bright-pink aminoxanthene dye with two sulfonic groups that bind to basic amino-acid residues under mild acidic conditions, and dissociate under basic conditions. As the binding of SRB is stoichiometric, the amount of dye extracted from stained cells is directly proportional to the cell mass.
(§3) Cell lines: All cell lines are obtained from ATCC (Manassas, Va.). Cultivation media containing Glutanax, and trypsin are purchased from Invitrogen (Carlsbad, Calif.). Doxorubicin, Clofarabine, TCA and SRB are from Sigma-Aldrich (St. Louis, Mo.). Gemcitabine is obtained from Moravek Biochemicals (Brea, Calif.)
(§4) • 1. Trypsinize the sub-confluent cells, count them, and adjust the cell concentrations according to the cell counts listed in Table 1. • 2. Distribute the cells into the 96-well plates in 150 μL of media. Incubate the plates overnight in humidified CO2 incubator at 37° C. • 3. Fix one plate of each cell line with TCA. Discard the cultivation media from the plates by flicking them gently and add 100 μL cold 10% (vol/vol) TCA to each well. Incubate the plates at 4 degree refrigerator for 1 hour. Discard TCA from the plates by flicking them gently. Rinse plates four times in a washing basin containing tap water. Store the plates at room temperature. These plates represent cell counts on day zero. • 4. Prepare a set of medium solutions containing various concentrations of tested compounds by making 5-fold serial dilutions in 96-well plate. Add 50 μL of the diluted compounds per well. Include controls with untreated cells and cells treated with doxorubicin, clofarabine and gemcitabine. • 5. Incubate the plates for 5 days at 37° C. • 6. Fix the plates with TCA. Discard the cultivation media from the plates by flicking them gently and add 100 μL cold 10% (vol/vol) TCA to each well. Incubate the plates at 4 degree refrigerator for 1 hour. Discard TCA from the plates by flicking them gently. Rinse plates four times in a washing basin containing tap water. • 7. Remove excess water by tapping the plates face down, gently on a paper towel. Allow the plates to air-dry at room temperature. • 8. Add 100 μL of 0.057% SRB solution in 1% (vol/vol) acetic acid to each well of the plates fixed with TCA on day zero and five. Leave at room temperature for 30 minutes. • 9. Flick the plates gently to discard SRB. Rinse the plates four times with 1% (vol/vol) Acetic Acid. • 10. Store the plates at 370 incubator to facilitate faster drying. • 11. Once the plates are completely dry, add 200 μL of 10 mM Tris base solution (pH 10.5) to each well. Leave at room temperature for 30 minutes for SRB to solubilize. • 12. Measure the OD at 500 nm in a microplate reader. • 13. Calculate the percentage of cell-growth inhibition using the next formula: % of control cell growth=100×(ODsample−mean ODday0)/(ODneg control−mean ODday0)
(§5) For GI50 determination, plot a dose-response curves between the compound concentration and percent of growth inhibition. GI50 values can be derived by fitting dose-response curves using sigmoidal dose response equation.

Hs578 = assay: Test A: Cytostatic Cell Culture Assay (GI50), Hs578; settings: 120 h; Hs578 cells, 5 days, SRB; read-out: G150 Breast Hs578
Excerpt: as §1, §2, §3, §4, §5

HCT116 = assay: Test A: Cytostatic Cell Culture Assay (GI50), HCT116; settings: Homo sapiens, HCT-116, 120 h; HCT116 cells, 5 days, SRB; read-out: G150 Colon HCT116
Excerpt: as §1, §2, §3, §4, §5

A549 = assay: Test A: Cytostatic Cell Culture Assay (GI50), A549; settings: Homo sapiens, 120 h; A549 cells, 5 days, SRB; read-out: G150 Lung A549
Excerpt: as §1, §2, §3, §4, §5

HCT15 = assay: Test A: Cytostatic Cell Culture Assay (GI50), HCT15; settings: Homo sapiens, HCT-15, 120 h; HCT15 cells, 5 days, SRB; read-out: G150 Colon HCT15
Excerpt: as §1, §2, §3, §4, §5

NCIH23 = assay: Test A: Cytostatic Cell Culture Assay (GI50), NCIH23; settings: Homo sapiens, NCI-H23, 120 h; NCIH23 cells, 5 days, SRB; read-out: G150 Lung NCIH23
Excerpt: as §1, §2, §3, §4, §5

PC3 = assay: Test A: Cytostatic Cell Culture Assay (GI50), PC3; settings: Homo sapiens, PC-3, 120 h; PC3 cells, 5 days, SRB; read-out: G150 Prostate PC3
Excerpt: as §1, §2, §3, §4, §5

IC50 (Du145) [µM]	IC50 (HCT116) [µM]	IC50 (A549) [µM]	IC50 (HCT15) [µM]	IC50 (PC3) [µM]	Compound	IC50 (Hs578) [µM]	IC50 (NCIH23) [µM]
15.7	> 20	> 20	–	–	OC[C@H]1O[C@@H](n2ccc3c(Cc4ccccc4)ncnc32)[C@H](O)[C@@H]1O [Example 2, 4-Benzyl-7-(β-D-ribofuranosyl)-7H-pyrrolo[2,3-d]pyrimidine]	> 20	–
1.31	> 20	> 20	–	–	COc1ccc(-c2ncnc3c2ccn3[C@@H]2O[C@H](CO)[C@@H](O)[C@H]2O)cc1 [Example 3, 4-(4-Methoxyphenyl)-7-(β-D-ribofuranosyl)-7H-pyrrolo[2,3-d]pyrimidine]	> 20	–
0.729	> 20	> 20	–	–	OC[C@H]1O[C@@H](n2ccc3c(-c4ccc(F)cc4)ncnc32)[C@H](O)[C@@H]1O [Example 4, 4-(4-Fluorophenyl)-7-(β-D-ribofuranosyl)-7H-pyrrolo[2,3-d]pyrimidine]	2.52	–
0.63	> 20	> 20	2.44	1.28	OC[C@H]1O[C@@H](n2ccc3c(-c4ccc[nH]4)ncnc32)[C@H](O)[C@@H]1O [Example 7, 4-(1H-Pyrrol-2-yl)-7-(β-D-ribofuranosyl)-7H-pyrrolo[2,3-d]pyrimidine]	1.28	2.5
0.019	0.484	0.409	0.208	0.104	OC[C@H]1O[C@@H](n2ccc3c(-c4nccs4)ncnc32)[C@H](O)[C@@H]1O [Example 8, 7-(β-D-Ribofuranosyl)-4-(thiazol-2-yl)-7H-pyrrolo[2,3-d]pyrimidine]	0.294	4.39
0.094	3.69	2.59	0.224	0.194	OC[C@H]1O[C@@H](n2ccc3c(-c4c[nH]cn4)ncnc32)[C@H](O)[C@@H]1O [Example 9, 4-(1H-Imidazol-4-yl)-7-(β-D-ribofuranosyl)-7H-pyrrolo[2,3-d]pyrimidine]	1.94	2.49
> 20	> 20	> 20	> 20	> 20	OC[C@H]1O[C@@H](n2ccc3c(-c4cccnc4)ncnc32)[C@H](O)[C@@H]1O [Example 10]	> 20	> 20
0.03	0.447	0.252	0.03	0.052	OCc1ncnc2c1ccn2[C@@H]1O[C@H](CO)[C@@H](O)[C@H]1O [Example 11, 4-Hydroxymethyl-7-(β-D-ribofuranosyl)-7H-pyrrolo[2,3-d]pyrimidine]	0.053	0.028
0.036	0.092	0.073	0.086	0.15	OC[C@H]1O[C@@H](n2ccc3c(-c4ccoc4)ncnc32)[C@H](O)[C@@H]1O [Example 12, 4-(Furan-3-yl)-7-(β-D-ribofuranosyl)-7H-pyrrolo[2,3-d]pyrimidine]	0.264	0.697
0.387	> 20	4.86	–	–	OC[C@H]1O[C@@H](n2ccc3c(-c4ccccn4)ncnc32)[C@H](O)[C@@H]1O [Example 18, 4-(Pyridin-2-yl)-7-(β-D-ribofuranosyl)-7H-pyrrolo[2,3-d]pyrimidine]	> 20	–
0.581	> 20	12.9	–	–	OC[C@H]1O[C@@H](n2cc(F)c3c(-c4ccccc4)ncnc32)[C@H](O)[C@@H]1O [Example 19, 5-Fluoro-4-phenyl-7-(β-D-ribofuranosyl)-7H-pyrrolo[2,3-d]pyrimidine]	19.2	–

Compound	IC50 (Du145) [µM]	IC50 (HCT116) [µM]	IC50 (A549) [µM]	IC50 (HCT15) [µM]	IC50 (PC3) [µM]	IC50 (Hs578) [µM]	IC50 (NCIH23) [µM]
CCc1ncnc2c1ccn2[C@@H]1O[C@H](CO)[C@@H](O)[C@H]1O [Example 1, 4-Ethyl-7-(β-D-ribofuranosyl)-7H-pyrrolo[2,3-d]pyrimidine]	1.24	2.56	4.4	–	–	4.68	–
